Experimental findings from patent publication US12371428B2 (Exelixis, Inc., priority 2019, dated 2025) are described below.

Holding throughout (assay type): cell-based
The target in test [1] is AXL (phospho-AXL, Gas6-stimulated A-172 glioblastoma cells) (Homo sapiens (Human), UniProt P30530). Kind of test: AXL autophosphorylation ELISA in A-172 cells (Example E). The following applies: cellular activity, read-out: Axl IC50. The procedure, abridged:
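Phospho-AXL was measured by ELISA in lysates of Gas6-stimulated A-172 cells, starved 24 h in serum-free medium and exposed 1 h to an 8-point compound dilution at 0.3% DMSO.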
A general note: An ELISA detects its analyte on a solid surface through an enzyme-linked reagent.

In test [2] the target is Met (phospho-Met, HGF-stimulated PC-3 prostate cancer cells) (Homo sapiens (Human), UniProt P08581). In words: Met autophosphorylation ELISA in PC-3 cells (Example F). The following applies: cellular activity, read-out: c-Met IC50. Summed up: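 Serum-starved (3 h) PC-3 cells were treated 1 h with compounds (8-point curve, 0.3% DMSO), then stimulated with 100 ng/mL human HGF for 10 min. Lysate phospho-Met (panTyr) was measured by sandwich ELISA, normalised to DMSO and reference-inhibitor controls. IC50 came from 4-parameter logistic fit.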

The target in test [3] is KDR (phospho-KDR, VEGF165-stimulated HUVEC cells) (Homo sapiens (Human), UniProt P35968). Kind of test: KDR autophosphorylation ELISA in HUVEC cells (Example G). The following applies: cellular activity. Summed up: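 First, endothelial cells were cultured a day, then kept without serum for another day. Next came 1 h with serially diluted compound, a brief 5 min VEGF165 stimulus (100 ng/mL), rapid lysis, and ELISA detection of receptor phosphorylation relative to stimulated and non-stimulated controls.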

The target in test [4] is Mer (phospho-Mer, MERTK-transfected 293A cells) (Homo sapiens (Human), UniProt Q12866). Kind of test: Mer autophosphorylation ELISA in transient transfected 293A cells (Example H). The conditions noted are these: cellular activity. The procedure, abridged: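 MERTK-transfected 293A; 8-pt dose, 1 h, serum-free, 0.3% DMSO. Cold lysis with orthovanadate and protease/phosphatase inhibitors. Phospho-Mer by DuoSet IC ELISA vs phospho-Mer standard. IC50: 4-PL fit; DMSO = 100%, reference inhibitor = 0%.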

The mark [5] stands for this setting: AXL autophosphorylation ELISA in A-172 cells.
[6] abbreviates: Met autophosphorylation ELISA in PC-3 cells.
Setting [7] is: KDR autophosphorylation ELISA in HUVEC cells.
Setting [8] is: Mer autophosphorylation ELISA in transient transfected 293A cells.

The IC50 is the concentration that inhibits the measured activity by half.

Like-named read-outs stand apart in the source and are kept apart here.

Sequence of AXL (phospho-AXL, Gas6-stimulated A-172 glioblastoma cells) (P30530 26-894): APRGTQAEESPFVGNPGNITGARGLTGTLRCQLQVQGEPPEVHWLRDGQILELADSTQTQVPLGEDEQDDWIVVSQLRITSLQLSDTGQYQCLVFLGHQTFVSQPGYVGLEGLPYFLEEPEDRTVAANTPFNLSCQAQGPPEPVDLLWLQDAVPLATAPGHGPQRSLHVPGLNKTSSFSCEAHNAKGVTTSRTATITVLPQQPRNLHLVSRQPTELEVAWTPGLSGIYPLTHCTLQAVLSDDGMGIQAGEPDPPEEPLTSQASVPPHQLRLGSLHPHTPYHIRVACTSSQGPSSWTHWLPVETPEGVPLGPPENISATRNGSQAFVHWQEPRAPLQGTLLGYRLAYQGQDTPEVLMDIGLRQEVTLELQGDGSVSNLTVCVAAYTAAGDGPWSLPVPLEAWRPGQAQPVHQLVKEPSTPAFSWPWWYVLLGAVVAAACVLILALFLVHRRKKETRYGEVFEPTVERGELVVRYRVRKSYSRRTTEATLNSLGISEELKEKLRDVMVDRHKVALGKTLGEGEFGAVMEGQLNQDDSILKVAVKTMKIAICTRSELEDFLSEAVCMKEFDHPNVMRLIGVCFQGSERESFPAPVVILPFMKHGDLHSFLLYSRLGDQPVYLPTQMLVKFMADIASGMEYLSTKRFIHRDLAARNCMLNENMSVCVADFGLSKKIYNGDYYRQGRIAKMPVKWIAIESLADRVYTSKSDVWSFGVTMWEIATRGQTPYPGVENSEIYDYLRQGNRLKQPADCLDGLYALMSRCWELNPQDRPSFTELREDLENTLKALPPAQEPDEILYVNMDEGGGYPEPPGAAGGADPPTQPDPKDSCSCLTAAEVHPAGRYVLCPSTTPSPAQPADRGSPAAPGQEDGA
Sequence of Mer (phospho-Mer, MERTK-transfected 293A cells) (Q12866 21-999): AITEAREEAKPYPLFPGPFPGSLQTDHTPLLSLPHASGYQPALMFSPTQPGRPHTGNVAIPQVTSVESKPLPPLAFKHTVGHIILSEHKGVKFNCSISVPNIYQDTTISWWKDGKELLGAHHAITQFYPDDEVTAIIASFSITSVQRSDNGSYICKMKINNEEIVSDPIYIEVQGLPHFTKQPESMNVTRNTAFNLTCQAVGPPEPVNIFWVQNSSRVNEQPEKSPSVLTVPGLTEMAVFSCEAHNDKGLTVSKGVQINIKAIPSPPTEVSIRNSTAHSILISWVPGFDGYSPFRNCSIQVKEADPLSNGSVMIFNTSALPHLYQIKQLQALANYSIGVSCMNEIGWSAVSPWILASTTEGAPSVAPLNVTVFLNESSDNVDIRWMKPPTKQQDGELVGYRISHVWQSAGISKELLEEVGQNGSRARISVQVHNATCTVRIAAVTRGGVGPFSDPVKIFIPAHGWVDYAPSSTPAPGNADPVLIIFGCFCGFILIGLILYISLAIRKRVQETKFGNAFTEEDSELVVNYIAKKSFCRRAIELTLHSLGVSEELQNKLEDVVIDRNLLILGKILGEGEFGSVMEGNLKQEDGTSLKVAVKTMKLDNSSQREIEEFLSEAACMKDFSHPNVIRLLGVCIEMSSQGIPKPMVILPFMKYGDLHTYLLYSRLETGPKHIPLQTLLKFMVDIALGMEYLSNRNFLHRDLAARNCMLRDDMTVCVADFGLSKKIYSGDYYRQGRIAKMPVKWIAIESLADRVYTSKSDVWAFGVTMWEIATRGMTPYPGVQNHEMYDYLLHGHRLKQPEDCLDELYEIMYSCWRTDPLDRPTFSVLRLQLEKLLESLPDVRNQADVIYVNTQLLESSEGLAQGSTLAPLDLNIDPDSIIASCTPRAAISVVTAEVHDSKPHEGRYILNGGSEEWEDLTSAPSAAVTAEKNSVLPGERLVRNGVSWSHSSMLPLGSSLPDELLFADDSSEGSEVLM
Sequence of KDR (phospho-KDR, VEGF165-stimulated HUVEC cells) (P35968 20-1356): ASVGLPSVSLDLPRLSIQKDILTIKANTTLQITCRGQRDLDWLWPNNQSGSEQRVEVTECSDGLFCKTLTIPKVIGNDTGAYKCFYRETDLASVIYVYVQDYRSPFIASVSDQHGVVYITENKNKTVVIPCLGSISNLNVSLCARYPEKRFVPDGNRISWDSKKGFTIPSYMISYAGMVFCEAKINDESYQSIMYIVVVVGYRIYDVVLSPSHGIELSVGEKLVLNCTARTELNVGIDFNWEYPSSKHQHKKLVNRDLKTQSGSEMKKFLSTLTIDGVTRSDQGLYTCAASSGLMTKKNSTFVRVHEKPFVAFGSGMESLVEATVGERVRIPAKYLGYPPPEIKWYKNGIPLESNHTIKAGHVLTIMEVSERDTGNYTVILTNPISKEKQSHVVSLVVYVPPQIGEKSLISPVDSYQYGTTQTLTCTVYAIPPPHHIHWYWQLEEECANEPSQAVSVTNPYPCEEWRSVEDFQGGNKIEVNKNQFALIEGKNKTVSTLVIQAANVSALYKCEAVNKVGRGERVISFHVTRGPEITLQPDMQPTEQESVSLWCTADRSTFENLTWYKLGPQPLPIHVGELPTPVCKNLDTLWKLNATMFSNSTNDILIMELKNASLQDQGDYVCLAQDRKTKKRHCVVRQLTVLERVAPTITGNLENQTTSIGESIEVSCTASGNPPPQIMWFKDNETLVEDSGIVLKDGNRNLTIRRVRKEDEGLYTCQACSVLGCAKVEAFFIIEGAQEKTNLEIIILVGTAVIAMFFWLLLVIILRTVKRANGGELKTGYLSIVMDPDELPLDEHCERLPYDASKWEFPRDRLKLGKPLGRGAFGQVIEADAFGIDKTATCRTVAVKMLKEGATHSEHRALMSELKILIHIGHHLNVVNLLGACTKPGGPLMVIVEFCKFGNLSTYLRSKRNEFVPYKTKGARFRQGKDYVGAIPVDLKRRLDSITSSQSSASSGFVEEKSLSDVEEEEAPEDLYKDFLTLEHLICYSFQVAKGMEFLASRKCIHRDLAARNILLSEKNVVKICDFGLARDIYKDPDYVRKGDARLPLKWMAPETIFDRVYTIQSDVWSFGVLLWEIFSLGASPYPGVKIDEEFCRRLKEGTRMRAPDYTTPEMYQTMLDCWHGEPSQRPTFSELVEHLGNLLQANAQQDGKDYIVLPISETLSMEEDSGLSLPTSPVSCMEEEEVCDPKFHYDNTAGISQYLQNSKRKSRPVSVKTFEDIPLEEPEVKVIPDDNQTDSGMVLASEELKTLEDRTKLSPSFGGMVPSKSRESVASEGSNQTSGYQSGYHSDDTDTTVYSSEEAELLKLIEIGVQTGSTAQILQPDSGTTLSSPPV
Sequence of Met (phospho-Met, HGF-stimulated PC-3 prostate cancer cells) (P08581 25-1390): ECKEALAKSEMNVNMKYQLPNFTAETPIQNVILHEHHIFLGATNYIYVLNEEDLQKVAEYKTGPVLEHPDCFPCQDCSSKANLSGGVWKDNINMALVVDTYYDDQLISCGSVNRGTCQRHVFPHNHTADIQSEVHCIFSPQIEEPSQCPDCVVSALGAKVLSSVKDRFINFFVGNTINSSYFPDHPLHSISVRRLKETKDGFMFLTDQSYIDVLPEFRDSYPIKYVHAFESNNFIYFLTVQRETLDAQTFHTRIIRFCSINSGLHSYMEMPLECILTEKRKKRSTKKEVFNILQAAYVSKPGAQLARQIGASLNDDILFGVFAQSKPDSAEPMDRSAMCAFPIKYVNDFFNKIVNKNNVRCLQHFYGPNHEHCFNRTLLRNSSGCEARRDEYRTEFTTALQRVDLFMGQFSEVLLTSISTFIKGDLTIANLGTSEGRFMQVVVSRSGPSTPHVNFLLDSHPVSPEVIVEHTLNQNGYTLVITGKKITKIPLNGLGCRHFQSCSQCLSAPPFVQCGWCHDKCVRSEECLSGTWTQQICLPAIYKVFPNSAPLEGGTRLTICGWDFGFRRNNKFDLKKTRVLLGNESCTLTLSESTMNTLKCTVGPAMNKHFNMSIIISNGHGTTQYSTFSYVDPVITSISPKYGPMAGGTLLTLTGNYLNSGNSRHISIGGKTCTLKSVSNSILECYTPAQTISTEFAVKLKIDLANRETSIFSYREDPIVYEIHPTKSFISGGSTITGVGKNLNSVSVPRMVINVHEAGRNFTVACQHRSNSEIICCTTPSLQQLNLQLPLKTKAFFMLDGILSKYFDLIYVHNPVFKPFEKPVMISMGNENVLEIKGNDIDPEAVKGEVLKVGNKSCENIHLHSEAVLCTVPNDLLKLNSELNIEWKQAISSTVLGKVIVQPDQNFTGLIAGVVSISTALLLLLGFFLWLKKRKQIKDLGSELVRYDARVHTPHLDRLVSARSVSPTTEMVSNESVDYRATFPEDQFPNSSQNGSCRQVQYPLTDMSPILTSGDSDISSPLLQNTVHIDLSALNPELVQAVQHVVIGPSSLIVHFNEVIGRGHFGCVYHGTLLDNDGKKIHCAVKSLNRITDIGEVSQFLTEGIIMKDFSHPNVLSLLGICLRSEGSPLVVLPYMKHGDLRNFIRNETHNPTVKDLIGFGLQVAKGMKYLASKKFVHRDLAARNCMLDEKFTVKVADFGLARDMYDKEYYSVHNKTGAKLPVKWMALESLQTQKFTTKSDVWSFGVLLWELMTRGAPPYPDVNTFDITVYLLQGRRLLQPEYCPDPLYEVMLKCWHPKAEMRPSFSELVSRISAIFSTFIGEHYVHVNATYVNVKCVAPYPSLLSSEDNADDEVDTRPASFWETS

For the compound `COc1cnc2c(Oc3ccc(NC(=O)c4c(C)n(CC(F)F)cc(-c5ccc(F)c(C)c5)c4=O)cc3F)ccnc2c1` [Compound 814, 1-(2,2-difluoroethyl)-N-[3-fluoro-4-[(7-methoxy-1,5-naphthyridin-4-yl)oxy]phenyl]-5-(4-fluoro-3-methylphenyl)-2-methyl-4-oxopyridine-3-carboxamide], the IC50 in test [1] (A-172 cells) was < 100 nM; in test [2] (PC-3 cells) it was < 100 nM; in test [3] (HUVEC cells), > 300 nM; in test [4] (transfected 293A cells) it was < 100 nM.

As for `COc1cc2nccc(Oc3ccc(NC(=O)c4nnc(C)c(-c5ccc(F)cc5)c4OC)cc3F)c2cc1OC` [Compound 571, N-[4-(6,7-Dimethoxyquinolin-4-yl)oxy-3-fluorophenyl]-5-(4-fluorophenyl)-4-methoxy-6-methylpyridazine-3-carboxamide], the IC50 in test [1] (setting [5]), in test [2] (setting [6]), in test [3] (setting [7]) and in test [4] (setting [8]) was < 100 nM in each case.

In the case of `COCCOc1nc2c(Oc3ccc(NC(=O)c4c(C)nc(C)c(-c5ccc(F)cc5)c4O)cc3F)ccnc2cc1OC` [Compound 207, N-[3-Fluoro-4-[[7-methoxy-6-(2-methoxyethoxy)-1,5-naphthyridin-4-yl]oxy]phenyl]-5-(4-fluorophenyl)-4-hydroxy-2,6-dimethylpyridine-3-carboxamide], the IC50 in test [1] (setting [5]), in test [2] (setting [6]), in test [3] (setting [7]) and in test [4] (setting [8]) was < 100 nM each time.

Consider `C=C(C)c1cnc2c(Oc3ccc(NC(=O)c4n[nH]c(C)c(-c5ccc(F)cc5)c4=O)cc3F)ccnc2c1` [Compound 464, 5-(4-fluorophenyl)-N-[3-fluoro-4-[(7-prop-1-en-2-yl-1,5-naphthyridin-4-yl)oxy]phenyl]-6-methyl-4-oxo-1H-pyridazine-3-carboxamide], for which the IC50 in test [1] (setting [5]), in test [2] (setting [6]), in test [3] (setting [7]) and in test [4] (setting [8]) was < 100 nM in each case.

In the case of `COc1cc2nccc(Oc3ccc(NC(=O)c4c5n(c(C)c(-c6ccc(F)cc6C)c4=O)CCOC5)cc3F)c2nc1OC` [Compound 782, N-[4-[(6,7-dimethoxy-1,5-naphthyridin-4-yl)oxy]-3-fluorophenyl]-7-(4-fluoro-2-methylphenyl)-6-methyl-8-oxo-3,4-dihydro-1H-pyrido[2,1-c][1,4]oxazine-9-carboxamide], the IC50 was < 100 nM in test [1] (setting [5]), < 100 nM in test [2] (setting [6]), > 300 nM in test [3] (setting [7]) and < 100 nM in test [4] (setting [8]).

With `COc1cc2nccc(Oc3ccc(NC(=O)c4c(OC)n(C)c(C)c(-c5ccc(F)cc5)c4=O)cc3F)c2nc1OC` [Compound 648, N-[4-[(6,7-dimethoxy-1,5-naphthyridin-4-yl)oxy]-3-fluorophenyl]-5-(4-fluorophenyl)-2-methoxy-1,6-dimethyl-4-oxopyridine-3-carboxamide], the IC50 is < 100 nM in test [1] (setting [5]), < 100 nM in test [2] (setting [6]), 100 to 300 nM in test [3] (setting [7]) and < 100 nM in test [4] (setting [8]).

Regarding `COCc1ccc(C(=O)Nc2ccc(Oc3ccnc4cc(OC)c(OC)nc34)c(F)c2)c(=O)n1-c1ccc(F)cc1` [Compound 358, N-[4-[(6,7-dimethoxy-1,5-naphthyridin-4-yl)oxy]-3-fluorophenyl]-1-(4-fluorophenyl)-6-(methoxymethyl)-2-oxopyridine-3-carboxamide], the IC50 in test [1] (setting [5]), in test [2] (setting [6]), in test [3] (setting [7]) and in test [4] (setting [8]) was < 100 nM throughout.

As for `CCc1c(C)c(C(=O)Nc2ccc(Oc3ccnc4cc(OC)cnc34)c(F)c2)c(=O)n(-c2ccc(F)cc2)c1C` [Compound 335, 5-ethyl-N-[3-fluoro-4-[(7-methoxy-1,5-naphthyridin-4-yl)oxy]phenyl]-1-(4-fluorophenyl)-4,6-dimethyl-2-oxopyridine-3-carboxamide], the IC50 in test [1] (setting [5]) is < 100 nM; in test [2] (setting [6]) it was < 100 nM; in test [3] (setting [7]), > 300 nM; in test [4] (setting [8]) it was < 100 nM.

As to `COc1cc2nccc(Oc3ccc(NC(=O)c4cn(C(F)F)c(C)c(-c5ccc(F)cc5)c4=O)cc3F)c2nc1OC` [Compound 668, 1-(difluoromethyl)-N-[4-[(6,7-dimethoxy-1,5-naphthyridin-4-yl)oxy]-3-fluorophenyl]-5-(4-fluorophenyl)-6-methyl-4-oxopyridine-3-carboxamide], the IC50 in test [1] (setting [5]), in test [2] (setting [6]), in test [3] (setting [7]) and in test [4] (setting [8]) was < 100 nM in each case.

Consider `CNc1nccc2c(Oc3ccc(NC(=O)c4cnc(C)c(-c5ccc(F)cc5)c4O)cc3)ccnc12` [Compound 387, 5-(4-fluorophenyl)-4-hydroxy-6-methyl-N-[4-[[8-(methylamino)-1,7-naphthyridin-4-yl]oxy]phenyl]pyridine-3-carboxamide], for which the IC50 in test [1] (setting [5]), in test [2] (setting [6]), in test [3] (setting [7]) and in test [4] (setting [8]) was < 100 nM each time.

In the case of `COc1cc2nccc(Oc3ccc(NC(=O)c4cn(C)c(C)c(-c5ccc(F)cc5F)c4=O)cc3)c2nc1OC` [Compound 396, 5-(2,4-difluorophenyl)-N-[4-[(6,7-dimethoxy-1,5-naphthyridin-4-yl)oxy]phenyl]-1,6-dimethyl-4-oxopyridine-3-carboxamide], the IC50 in test [1] (setting [5]), in test [2] (setting [6]), in test [3] (setting [7]) and in test [4] (setting [8]) was < 100 nM each time.

`COc1cc2nccc(Oc3ccc(NC(=O)c4c(C)c(C)nn(-c5ccc(F)cc5)c4=O)cc3)c2nc1OC` [Compound 732, N-[4-[(6,7-dimethoxy-1,5-naphthyridin-4-yl)oxy]phenyl]-2-(4-fluorophenyl)-5,6-dimethyl-3-oxopyridazine-4-carboxamide]: the 50% inhibitory concentration (IC50) in test [1] (setting [5]) was < 100 nM; in test [2] (setting [6]), < 100 nM; in test [3] (setting [7]) it was > 300 nM; in test [4] (setting [8]), < 100 nM.

`COc1cc2nccc(Oc3ccc(NC(=O)c4nn(C(C)C)c(C)c(-c5ccc(F)cc5)c4=O)cc3F)c2cc1OC` [Compound 575, N-[4-(6,7-Dimethoxyquinolin-4-yl)oxy-3-fluorophenyl]-5-(4-fluorophenyl)-6-methyl-4-oxo-1-propan-2-ylpyridazine-3-carboxamide]: the IC50 in test [1] (setting [5]), in test [2] (setting [6]), in test [3] (setting [7]) and in test [4] (setting [8]) was < 100 nM each time.

For `COc1cnc2c(Oc3ccc(NC(=O)c4c(C)nc(C)c(-c5ccc(OC)c(F)c5)c4O)cc3F)ccnc2c1` [Compound 693, N-[3-fluoro-4-[(7-methoxy-1,5-naphthyridin-4-yl)oxy]phenyl]-5-(3-fluoro-4-methoxyphenyl)-4-hydroxy-2,6-dimethylpyridine-3-carboxamide], the IC50 was > 300 nM in test [1] (setting [5]), 100 to 300 nM in test [2] (setting [6]), < 100 nM in test [3] (setting [7]) and < 100 nM in test [4] (setting [8]).

Regarding `COc1cnc2c(Oc3ccc(NC(=O)c4c5n(cc(-c6ccc(F)cc6)c4=O)CCOC5)cc3F)ccnc2c1` [Compound 809, N-[3-fluoro-4-[(7-methoxy-1,5-naphthyridin-4-yl)oxy]phenyl]-7-(4-fluorophenyl)-8-oxo-3,4-dihydro-1H-pyrido[2,1-c][1,4]oxazine-9-carboxamide], the IC50 in test [1] (A-172 cells) is < 100 nM; in test [2] (PC-3 cells), < 100 nM; in test [3] (HUVEC cells), > 300 nM; in test [4] (transfected 293A cells), < 100 nM.

As for `CCOc1nc2c(Oc3ccc(NC(=O)c4c(C)nc(C)c(-c5ccc(F)cc5C)c4O)cc3)ccnc2cc1OC` [Compound 674, N-[4-[(6-ethoxy-7-methoxy-1,5-naphthyridin-4-yl)oxy]phenyl]-5-(4-fluoro-2-methylphenyl)-4-hydroxy-2,6-dimethylpyridine-3-carboxamide], the IC50 in test [1] (setting [5]), in test [2] (setting [6]), in test [3] (setting [7]) and in test [4] (setting [8]) was < 100 nM throughout.

Turning to `Cc1ccc2nccc(Oc3ccc(NC(=O)c4cn(C)c(CO)c(-c5ccc(F)cc5)c4=O)cc3F)c2n1` [Compound 749, N-[3-fluoro-4-[(6-methyl-1,5-naphthyridin-4-yl)oxy]phenyl]-5-(4-fluorophenyl)-6-(hydroxymethyl)-1-methyl-4-oxopyridine-3-carboxamide], the IC50 was < 100 nM in test [1] (setting [5]), < 100 nM in test [2] (setting [6]), > 300 nM in test [3] (setting [7]) and < 100 nM in test [4] (setting [8]).

Take `COc1cc2nccc(Oc3ccc(NC(=O)c4c(C)n(CCF)cc(-c5ccc(F)c(F)c5)c4=O)cc3F)c2nc1OC` [Compound 815, 5-(3,4-difluorophenyl)-N-[4-[(6,7-dimethoxy-1,5-naphthyridin-4-yl)oxy]-3-fluorophenyl]-1-(2-fluoroethyl)-2-methyl-4-oxopyridine-3-carboxamide]: the IC50 in test [1] (A-172 cells) is < 100 nM; in test [2] (PC-3 cells) it was < 100 nM; in test [3] (HUVEC cells) it was 100 to 300 nM; in test [4] (transfected 293A cells), < 100 nM.
